In the supplement of paper PMC4862054:
Values joined by “and” are separate entries in the source; they are usually repeats but may differ in a detail not shown here. Equal entries are not always repeated.

Tests used:
Details in all cases: incubation time: 72 h
[1] = test system: CAL-85-1; assay: normalised viability (% of control), CellTiter-Blue; higher = more viable cells (about 100 = DMSO control)
Experimental: (§1)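 DSRT, CellTiter-Blue viability, 72 h incubation. Signal is normalised to DMSO and benzethonium chloride controls. Value is the normalised response at dose 7.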

[2] = test system: DU-4475; assay: as above
Experimental: as §1

[3] = test system: CAL-51; assay: as above
Experimental: as §1

[4] = test system: MDA-MB-453; assay: as above
Experimental: as §1

[5] = test system: HDQ-P1; assay: as above
Experimental: as §1

[6] = test system: CAL-148; assay: as above
Experimental: as §1

[7] = test system: BT-474; assay: normalised response (% of control), CellTox Green; higher = less cell death (100 = DMSO, 0 = benzethonium chloride kill control)
Outline: (§2)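 Normalised signals at single concentrations make up the values. They come from breast cancer cell lines seeded (20 µl suspension) into 384-well plates with compound at 5 concentrations in 10-fold steps over a compound-specific 10,000-fold range, incubated 72 h, and read for CellTox Green fluorescence then CellTiter-Glo luminescence. Each plate was normalised to 0.1 % DMSO (100) and a positive kill control (0).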

[8] = test system: CAL-85-1; assay: as above
Outline: as §2

[9] = test system: MDA-MB-436; assay: as above
Outline: as §2

[10] = test system: DU-4475; assay: as above
Outline: as §2

[11] = test system: CAL-51; assay: as above
Outline: as §2

[12] = test system: BT-549; assay: as above
Outline: as §2

[13] = test system: MDA-MB-468; assay: as above
Outline: as §2

[14] = test system: MCF-10A; assay: as above
Outline: as §2

[15] = test system: MDA-MB-453; assay: as above
Outline: as §2

[16] = test system: MDA-MB-231; assay: as above
Outline: as §2

[17] = test system: Hs578T; assay: as above
Outline: as §2

[18] = test system: HCC1143; assay: as above
Outline: as §2

[19] = test system: HCC1937; assay: as above
Outline: as §2

[20] = test system: HDQ-P1; assay: as above
Outline: as §2

[21] = test system: HCC1599; assay: as above
Outline: as §2

[22] = test system: CAL-120; assay: as above
Outline: as §2

[23] = test system: MFM-223; assay: as above
Outline: as §2

[24] = test system: CAL-148; assay: as above
Outline: as §2

[25] = test system: BT-474; assay: normalised response (% of control), CellTiter-Glo; higher = more viable cells (100 = DMSO, 0 = benzethonium chloride kill control)
Experimental: (§3)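 DSRT, 72 h incubation, CellTox Green / CellTiter-Glo readout. Signal is normalised to DMSO and benzethonium chloride controls. Value is the normalised response at the highest dose.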

[26] = test system: CAL-85-1; assay: as above
Experimental: as §3

[27] = test system: MDA-MB-436; assay: as above
Experimental: as §3

[28] = test system: DU-4475; assay: as above
Experimental: as §3

[29] = test system: CAL-51; assay: as above
Experimental: as §3

[30] = test system: BT-549; assay: as above
Experimental: as §3

[31] = test system: SK-BR-3; assay: as above
Experimental: as §3

[32] = test system: MDA-MB-468; assay: as above
Experimental: as §3

[33] = test system: MCF-10A; assay: as above
Experimental: as §3

[34] = test system: MDA-MB-453; assay: as above
Experimental: as §3

[35] = test system: MDA-MB-231; assay: as above
Experimental: as §3

[36] = test system: Hs578T; assay: as above
Experimental: as §3

[37] = test system: HCC1143; assay: as above
Experimental: as §3

[38] = test system: HCC1937; assay: as above
Experimental: as §3

[39] = test system: HDQ-P1; assay: as above
Experimental: as §3

[40] = test system: HCC1599; assay: as above
Experimental: as §3

[41] = test system: CAL-120; assay: as above
Experimental: as §3

[42] = test system: MFM-223; assay: as above
Experimental: as §3

[43] = test system: CAL-148; assay: as above
Experimental: as §3

[44] = test system: CAL-85-1; assay: normalised viability (% of control), CellTiter-Blue; higher = more viable cells (about 100 = DMSO control); remark: listed apart in the source
Experimental: (§4)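 DSRT, CellTiter-Blue viability, 72 h incubation. Signal is normalised to DMSO and benzethonium chloride controls. Value is the normalised response at dose 6.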

[45] = test system: DU-4475; assay: as above; remark: listed apart in the source
Experimental: as §4

[46] = test system: CAL-51; assay: as above; remark: listed apart in the source
Experimental: as §4

[47] = test system: MDA-MB-453; assay: as above; remark: listed apart in the source
Experimental: as §4

[48] = test system: CAL-148; assay: as above; remark: listed apart in the source
Experimental: as §4

SMILES: C=CCN(/C=C1/C(=O)O[C@H](COC)[C@@]2(C)C1=C(O)C(=O)C1=C2[C@H](OC(C)=O)C[C@]2(C)C(=O)CC[C@@H]12)CC=C [PX-866] (1000 nM)
- normalised viability [1]: 95%
- normalised viability [2]: 102%
- normalised viability [3]: 112%
- normalised viability [4]: 101%
- normalised viability [5]: 86.3%
- normalised viability [6]: 99.4%

SMILES: CC[C@H](CO)Nc1nc(NCc2ccccc2)c2ncn(C(C)C)c2n1 [Seliciclib] (10000 nM)
- normalised response [7]: 100%
- normalised response [8]: 62.7%
- normalised response [9]: 91.4%
- normalised response [10]: 105%
- normalised response [11]: 99.4%
- normalised response [12]: 91.5%
- normalised response [13]: 154%
- normalised response [14]: 108%
- normalised response [15]: 108%
- normalised response [16]: 108%
- normalised response [17]: 84.9%
- normalised response [18]: 84.5%
- normalised response [19]: 105%
- normalised response [20]: 106%
- normalised response [21]: 110%
- normalised response [22]: 97.2%
- normalised response [23]: 68.6%
- normalised response [24]: 95.6%
- normalised response [25]: 82.1%
- normalised response [26]: 83.9%
- normalised response [27]: 79.9%
- normalised response [28]: 97.7%
- normalised response [29]: 78.7%
- normalised response [30]: 80.1%
- normalised response [31]: 86.2%
- normalised response [32]: 87.1%
- normalised response [33]: 95.9%
- normalised response [34]: 132%
- normalised response [35]: 81.1%
- normalised response [36]: 96.4%
- normalised response [37]: 96.3%
- normalised response [38]: 92.4%
- normalised response [39]: 84.4%
- normalised response [40]: 95.9%
- normalised response [41]: 92%
- normalised response [42]: 89%
- normalised response [43]: 117%

SMILES: CCN(CC)CCCC(C)Nc1ccnc2cc(Cl)ccc12 (stereo unspecified) [Chloroquine] (100000 nM)
- normalised response [7]: -2.97%
- normalised response [8]: -51.4%
- normalised response [9]: 42.2%
- normalised response [10]: 48.9%
- normalised response [11]: 28.5%
- normalised response [12]: 30.4%
- normalised response [13]: -27.6%
- normalised response [14]: -62.8%
- normalised response [15]: 1.49%
- normalised response [16]: -46.1%
- normalised response [17]: -118%
- normalised response [18]: 67.2%
- normalised response [19]: 18.7%
- normalised response [20]: 23%
- normalised response [21]: 57%
- normalised response [22]: 8.39%
- normalised response [23]: 0.04%
- normalised response [24]: 24.9%
- normalised response [25]: 2.13%
- normalised response [26]: 0.53%
- normalised response [27]: 1.76%
- normalised response [28]: 0.38%
- normalised response [29]: 1.42%
- normalised response [30]: 0.71%
- normalised response [31]: 0.25%
- normalised response [32]: 1.06%
- normalised response [33]: 1.88%
- normalised response [34]: 0.26%
- normalised response [35]: 0.24%
- normalised response [36]: 0.3%
- normalised response [37]: 22.8%
- normalised response [38]: 3.72%
- normalised response [39]: 0.97%
- normalised response [40]: 0.3%
- normalised response [41]: 7.89%
- normalised response [42]: 0.63%
- normalised response [43]: 0.47%

SMILES: O=C(CCCCCCC(=O)Nc1ccccc1)NO [Vorinostat] (300 nM)
- normalised viability [44]: 95.3% and 104%
- normalised viability [45]: 97.4% and 88.9%
- normalised viability [46]: 116% and 104%
- normalised viability [47]: 82.8% and 81.7%
- normalised viability [48]: 85.6% and 94.9%

SMILES: CC[C@H](CO)Nc1nc(NCc2ccccc2)c2ncn(C(C)C)c2n1 [Roscovitine] (1000 nM)
- normalised viability [1]: 87.8%
- normalised viability [2]: 101%
- normalised viability [3]: 105%
- normalised viability [4]: 96.2%
- normalised viability [5]: 104%
- normalised viability [6]: 92.1%
